Experiments:
[1] = test system: BMSC+MDA-MB-231 spheroid; experiment: Real Time-Glo MT cell viability assay, 3D multicellular tumor spheroid; assay type: cell-based; conditions: Homo sapiens, 48 h; 10 μM doxorubicin for two days
[2] = test system: FIB+MDA-MB-231 spheroid; experiment: as above; assay type: cell-based; conditions: Homo sapiens, 48 h; 10 μM doxorubicin for two days
[3] = test system: three types of 3D spheroids versus 2D monolayer; experiment: 3D versus 2D comparison of cell viability; assay type: cell-based, human; conditions: doxorubicin
[4] = test system: ASC+MDA-MB-231 spheroid; experiment: Real Time-Glo MT cell viability assay, 3D multicellular tumor spheroid
[5] = test system: ASC+MDA-MB-231 spheroid; experiment: Real Time-Glo Annexin V apoptosis assay, 3D spheroid; assay type: cell-based, human; conditions: 10 μM doxorubicin, 48 hours
Procedure: (§1) Apoptotic and necrotic cells in spheroids were assayed using Real Time-Glo™ Annexin V apoptosis and necrosis assays. Real Time-Glo™ Annexin V apoptosis and necrosis assays were performed in combination with a cell viability assay. […] Thereafter, 2X apoptosis and necrosis formulations of the same volume (100 μL) were added to each well according to standard protocol proposed in manufacturer's instructions.
(§2) To investigate drug sensitivity depending on the viability against doxorubicin in the spheroids, Real Time-Glo™ Annexin V apoptosis and necrosis assays were performed. If apoptosis is induced by a drug response, a cell membrane is reversed to expose phosphatidyl-serine (PS), and an apoptotic cell can be analyzed by binding PS with Annexin V detected by a luminescence signal. A necrotic cell is detected by binding DNA with PI (green) that produces a fluorescence signal when the necrotic cell invades into a cell and a cell membrane loses integrity.

[6] = test system: FIB+MDA-MB-231 spheroid; experiment: as above; assay type: cell-based, human; conditions: 10 μM doxorubicin, 48 hours
Procedure: as §1, §2

[7] = test system: BMSC+MDA-MB-231 spheroid; experiment: as above; assay type: cell-based, human; conditions: 10 μM doxorubicin, 48 hours
Procedure: as §1, §2

[8] = test system: 3D multicellular tumor spheroids (ASC, BMSC or FIB + MDA-MB-231); experiment: Necrosis (PI) assay, three types of 3D spheroids; assay type: cell-based, human; conditions: 10 μM doxorubicin, 48 hours
Procedure: as §1, §2

COc1cccc2c1C(=O)c1c(O)c3c(c(O)c1C2=O)C[C@@](O)(C(=O)CO)C[C@@H]3O[C@H]1C[C@H](N)[C@H](O)[C@H](C)O1 [doxorubicin]
viability at 10 µM [1]: 48.3% | viability at 10 µM [2]: 43% | drug sensitivity of 3D spheroids compared with 2D monolayer [3]: lower drug sensitivity | cell viability ([4]; 10 μM doxorubicin for two days): 56.67% | viability, compared with other co-culture ratios ([4]; ASC:MDA-MB-231 co-culture ratio 5:5, 10 μM doxorubicin, 48 hours): highest | apoptosis (Annexin V) fold change [5]: 9 fold | apoptosis (Annexin V) fold change [6]: about 13 times | apoptosis (Annexin V) fold change [7]: 10 fold | necrosis (PI), difference between spheroid types [8]: No significant difference
